26 compounds from patent US8901133B2, “Heterocyclic compounds and uses thereof” (Infinity Pharmaceuticals, Inc., priority 2010, dated 2014) can be followed below.

The target of experiment [1] is T1, PI3Kδ (Homo sapiens, UniProt O00329).
T1 construct: purchased Millipore Corporation 14-604-K
Nature of the experiment: PI3 Kinase HTRF assay, PI3Kδ. Format: biochemical. The note with it: 10 μM PIP2, 10 μM ATP; read-out: PI3K δ IC50. The source says:
(§1) A PI3 Kinase HTRF® assay kit (cat No. 33-016) purchased from Millipore Corporation was used to screen compounds disclosed herein. This assay used specific, high affinity binding of the GRP1 pleckstrin homology (PH) domain to PIP3, the product of a Class 1A or 1B PI3 Kinase acting on its physiological substrate PIP2. During the detection phase of the assay, a complex was generated between the GST-tagged PH domain and biotinylated short chain PIP3. The biotinylated PIP3 and the GST-tagged PH domain recruited fluorophores (Streptavidin-Allophycocyanin and Europium-labeled anti-GST respectively) to form the fluorescence resonance energy transfer (FRET) architecture, generating a stable time-resolved FRET signal. The FRET complex was disrupted in a competitive manner by non-biotinylated PIP3, a product formed in the PI3 Kinase assay.
(§2) PI3 Kinase α, β, γ and δ activity was assayed using the PI3 Kinase HTRF® assay kit (catalogue No. 33-016) purchased from Millipore Corporation. Purified recombinant PI3Kα (catalogue No. 14-602-K), PI3Kβ (catalogue No. 14-603-K), PI3Kγ (catalogue No. 14-558-K) and PI3Kδ (catalogue No. 14-604-K) were obtained from Millipore Corporation. Purified recombinant PI3K enzyme was used to catalyze the phosphorylation of phosphatidylinositol 4,5-bisphosphate (PIP2 at 10 μM) to phosphatidylinositol 3,4,5-trisphosphate (PIP3) in the presence of 10 μM ATP. The assay was carried out in 384-well format and detected using a Perkin Elmer En Vision Xcite Multilabel Reader. Emission ratios were converted into percent inhibitions and imported into GraphPad Prism software. The concentration necessary to achieve inhibition of enzyme activity by 50% (IC50) was calculated using concentrations ranging from 20 μM to 0.1 nM (12-point curve). IC50 values were determined using a nonlinear regression model available in GraphPad Prism 5. […]

Experiment [2] concerns Balb/c splenic B cells. In words: B cell activation and proliferation assay (Alamar Blue). In kind it is cell-based. To be noted: Mus musculus, read-out: B cell prolif. IC50. The procedure: The ability of one or more subject compounds to inhibit B cell activation and proliferation is determined according to standard procedures known in the art. For example, an in vitro cellular proliferation assay is established that measures the metabolic activity of live cells. The assay is performed in a 96 well microtiter plate using Alamar Blue reduction. Balb/c splenic B cells are purified over a Ficoll-Paque™ PLUS gradient followed by magnetic cell separation using a MACS B cell Isolation Kit (Miletenyi). Cells are plated in 90 ul at 50,000 cells/well in B Cell Media (RPMI+10% FBS+Penn/Strep+50 uM bME+5 mM HEPES). A compound disclosed herein is diluted in B Cell Media and added in a 10 μl volume. Plates are incubated for 30 min at 37 C and 5% CO2 (0.2% DMSO final concentration). A 50 μl B cell stimulation cocktail is then added containing either 10 ug/ml LPS or 5 ug/ml F(ab′)2 Donkey anti-mouse IgM plus 2 ng/ml recombinant mouse IL4 in B Cell Media. Plates are incubated for 72 hours at 37° C. and 5% CO2. A volume of 15 μl of Alamar Blue reagent is added to each well and plates are incubated for 5 hours at 37 C and 5% CO2. Alamar Blue fluoresce is read at 560Ex/590Em, and IC50 or EC50 values are calculated using GraphPad Prism 5.

Experiment [3] concerns the target T2, PI3Kβ (Homo sapiens, UniProt P42338).
T2 construct: purchased Millipore Corporation 14-603-K
Nature of the experiment: PI3 Kinase HTRF assay, PI3Kβ. Format: biochemical. The note with it: 10 μM PIP2, 10 μM ATP; read-out: PI3K β IC50.
From the text: as §1, §2

In experiment [4] the target is T3, PI3Kγ (Homo sapiens, UniProt P48736).
T3 construct: purchased Millipore Corporation 14-558-K
Nature of the experiment: PI3 Kinase HTRF assay, PI3Kγ. The note with it: 10 μM PIP2, 10 μM ATP; read-out: PI3K γ IC50. Format: biochemical.
From the text: as §1, §2

Experiment [5] deals with T4, PI3Kα (Homo sapiens, UniProt P42336).
T4 construct: purchased Millipore Corporation 14-602-K
In words: PI3 Kinase HTRF assay, PI3Kα. Format: biochemical. To be noted: 10 μM PIP2, 10 μM ATP; read-out: PI3K α IC50.
From the text: as §1, §2

T2 sequence (P42338 whole entry): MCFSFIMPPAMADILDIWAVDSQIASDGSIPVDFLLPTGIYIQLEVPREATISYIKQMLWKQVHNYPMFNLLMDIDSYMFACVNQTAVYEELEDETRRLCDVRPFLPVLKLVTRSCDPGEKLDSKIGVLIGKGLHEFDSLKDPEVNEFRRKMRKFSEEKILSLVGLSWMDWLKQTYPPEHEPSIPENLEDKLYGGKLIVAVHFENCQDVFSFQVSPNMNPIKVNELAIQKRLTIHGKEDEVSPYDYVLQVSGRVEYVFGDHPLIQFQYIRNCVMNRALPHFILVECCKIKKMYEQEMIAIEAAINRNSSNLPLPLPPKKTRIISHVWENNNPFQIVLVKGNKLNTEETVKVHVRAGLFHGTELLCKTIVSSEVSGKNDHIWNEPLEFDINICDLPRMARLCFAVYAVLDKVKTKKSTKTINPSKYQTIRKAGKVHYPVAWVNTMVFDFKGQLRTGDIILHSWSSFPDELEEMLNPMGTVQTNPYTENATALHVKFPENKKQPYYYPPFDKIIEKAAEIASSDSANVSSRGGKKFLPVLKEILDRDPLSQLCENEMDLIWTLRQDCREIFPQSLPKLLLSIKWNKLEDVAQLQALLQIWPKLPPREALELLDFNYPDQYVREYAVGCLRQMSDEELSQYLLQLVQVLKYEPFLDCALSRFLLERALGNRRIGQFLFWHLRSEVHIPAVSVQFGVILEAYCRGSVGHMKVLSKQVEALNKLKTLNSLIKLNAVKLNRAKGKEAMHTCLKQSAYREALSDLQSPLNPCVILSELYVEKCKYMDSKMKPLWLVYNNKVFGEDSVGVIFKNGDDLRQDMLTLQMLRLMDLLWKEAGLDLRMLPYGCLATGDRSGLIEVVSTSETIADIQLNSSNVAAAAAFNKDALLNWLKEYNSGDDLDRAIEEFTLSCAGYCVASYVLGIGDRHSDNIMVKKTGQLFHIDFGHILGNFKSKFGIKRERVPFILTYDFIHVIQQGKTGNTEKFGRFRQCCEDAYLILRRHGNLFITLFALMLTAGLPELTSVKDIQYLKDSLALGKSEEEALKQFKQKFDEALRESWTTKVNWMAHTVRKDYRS
T2 sequence (P27986 whole entry partner): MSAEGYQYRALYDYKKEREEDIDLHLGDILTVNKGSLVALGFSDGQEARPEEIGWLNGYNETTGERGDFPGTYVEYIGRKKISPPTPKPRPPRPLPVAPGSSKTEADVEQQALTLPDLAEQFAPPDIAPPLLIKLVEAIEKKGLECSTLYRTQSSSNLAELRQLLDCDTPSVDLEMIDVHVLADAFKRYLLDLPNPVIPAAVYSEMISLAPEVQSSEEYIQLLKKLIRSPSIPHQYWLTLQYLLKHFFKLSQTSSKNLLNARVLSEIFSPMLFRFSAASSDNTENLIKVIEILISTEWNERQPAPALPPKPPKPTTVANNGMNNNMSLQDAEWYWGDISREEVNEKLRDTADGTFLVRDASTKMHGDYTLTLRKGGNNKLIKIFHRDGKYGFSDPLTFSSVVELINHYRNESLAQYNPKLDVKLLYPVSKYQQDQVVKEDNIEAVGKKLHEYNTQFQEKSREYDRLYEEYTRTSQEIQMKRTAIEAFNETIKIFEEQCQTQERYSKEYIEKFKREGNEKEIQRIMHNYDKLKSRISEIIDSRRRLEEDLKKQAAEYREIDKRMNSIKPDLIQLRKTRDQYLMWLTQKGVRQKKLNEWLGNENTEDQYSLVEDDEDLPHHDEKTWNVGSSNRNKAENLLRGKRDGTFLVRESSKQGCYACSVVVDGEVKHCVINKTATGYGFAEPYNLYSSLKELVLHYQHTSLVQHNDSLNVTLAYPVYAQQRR
T3 sequence (P48736 whole entry): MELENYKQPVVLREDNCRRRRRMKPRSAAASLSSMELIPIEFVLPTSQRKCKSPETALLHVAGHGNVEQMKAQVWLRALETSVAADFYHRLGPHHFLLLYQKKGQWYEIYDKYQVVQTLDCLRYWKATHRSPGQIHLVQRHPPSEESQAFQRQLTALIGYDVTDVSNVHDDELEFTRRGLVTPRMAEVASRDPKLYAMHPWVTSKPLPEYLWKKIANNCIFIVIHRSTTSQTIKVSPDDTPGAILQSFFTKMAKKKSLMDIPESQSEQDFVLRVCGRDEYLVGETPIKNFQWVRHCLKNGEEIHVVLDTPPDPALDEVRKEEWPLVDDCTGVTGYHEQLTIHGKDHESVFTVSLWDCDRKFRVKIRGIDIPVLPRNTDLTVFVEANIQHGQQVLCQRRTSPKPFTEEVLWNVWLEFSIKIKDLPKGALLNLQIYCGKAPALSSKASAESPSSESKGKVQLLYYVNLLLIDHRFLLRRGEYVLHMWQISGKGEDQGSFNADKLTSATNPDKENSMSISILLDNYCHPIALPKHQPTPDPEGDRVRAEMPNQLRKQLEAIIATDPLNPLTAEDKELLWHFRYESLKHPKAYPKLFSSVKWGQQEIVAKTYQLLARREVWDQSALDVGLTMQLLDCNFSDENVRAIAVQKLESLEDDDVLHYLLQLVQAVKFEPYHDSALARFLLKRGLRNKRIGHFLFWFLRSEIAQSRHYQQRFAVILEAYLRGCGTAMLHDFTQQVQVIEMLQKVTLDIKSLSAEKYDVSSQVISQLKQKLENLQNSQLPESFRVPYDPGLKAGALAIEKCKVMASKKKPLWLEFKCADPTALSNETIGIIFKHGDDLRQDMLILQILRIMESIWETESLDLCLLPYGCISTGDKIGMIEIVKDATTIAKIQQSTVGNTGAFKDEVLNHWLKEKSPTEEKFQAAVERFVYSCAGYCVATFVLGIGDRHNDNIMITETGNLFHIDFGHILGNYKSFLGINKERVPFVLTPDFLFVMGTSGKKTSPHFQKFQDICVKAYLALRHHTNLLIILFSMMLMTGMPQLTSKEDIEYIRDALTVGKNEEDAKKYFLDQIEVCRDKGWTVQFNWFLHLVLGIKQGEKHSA
T4 sequence (P42336 whole entry): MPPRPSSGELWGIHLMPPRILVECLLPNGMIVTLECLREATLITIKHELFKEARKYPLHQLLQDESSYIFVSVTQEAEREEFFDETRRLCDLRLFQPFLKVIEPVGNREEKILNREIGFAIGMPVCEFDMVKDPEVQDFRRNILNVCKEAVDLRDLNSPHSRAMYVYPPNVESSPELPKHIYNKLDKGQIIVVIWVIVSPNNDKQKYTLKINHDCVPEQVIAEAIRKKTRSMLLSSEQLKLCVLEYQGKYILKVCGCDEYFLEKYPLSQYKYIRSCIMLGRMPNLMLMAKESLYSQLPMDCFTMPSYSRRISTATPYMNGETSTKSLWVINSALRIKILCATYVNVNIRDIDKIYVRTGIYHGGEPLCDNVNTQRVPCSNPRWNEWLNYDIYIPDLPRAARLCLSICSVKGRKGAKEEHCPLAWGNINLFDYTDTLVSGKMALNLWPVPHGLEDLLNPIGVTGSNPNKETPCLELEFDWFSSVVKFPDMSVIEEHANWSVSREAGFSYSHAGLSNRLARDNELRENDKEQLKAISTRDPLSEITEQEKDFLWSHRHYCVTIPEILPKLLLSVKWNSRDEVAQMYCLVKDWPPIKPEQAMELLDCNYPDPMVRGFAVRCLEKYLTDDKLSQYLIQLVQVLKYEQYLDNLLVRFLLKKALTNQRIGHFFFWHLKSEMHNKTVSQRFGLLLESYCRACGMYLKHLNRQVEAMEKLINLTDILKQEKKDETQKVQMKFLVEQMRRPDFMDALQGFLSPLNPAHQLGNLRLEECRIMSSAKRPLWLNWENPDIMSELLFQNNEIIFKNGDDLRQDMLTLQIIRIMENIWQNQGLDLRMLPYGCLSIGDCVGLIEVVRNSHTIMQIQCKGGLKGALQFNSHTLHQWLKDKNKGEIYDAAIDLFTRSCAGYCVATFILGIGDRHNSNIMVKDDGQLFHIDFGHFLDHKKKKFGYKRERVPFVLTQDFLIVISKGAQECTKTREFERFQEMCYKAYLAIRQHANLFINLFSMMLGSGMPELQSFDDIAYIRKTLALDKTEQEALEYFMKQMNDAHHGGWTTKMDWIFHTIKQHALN
T4 sequence (P27986 whole entry partner): as the sequence (P27986 whole entry partner) above
T1 sequence (O00329 whole entry): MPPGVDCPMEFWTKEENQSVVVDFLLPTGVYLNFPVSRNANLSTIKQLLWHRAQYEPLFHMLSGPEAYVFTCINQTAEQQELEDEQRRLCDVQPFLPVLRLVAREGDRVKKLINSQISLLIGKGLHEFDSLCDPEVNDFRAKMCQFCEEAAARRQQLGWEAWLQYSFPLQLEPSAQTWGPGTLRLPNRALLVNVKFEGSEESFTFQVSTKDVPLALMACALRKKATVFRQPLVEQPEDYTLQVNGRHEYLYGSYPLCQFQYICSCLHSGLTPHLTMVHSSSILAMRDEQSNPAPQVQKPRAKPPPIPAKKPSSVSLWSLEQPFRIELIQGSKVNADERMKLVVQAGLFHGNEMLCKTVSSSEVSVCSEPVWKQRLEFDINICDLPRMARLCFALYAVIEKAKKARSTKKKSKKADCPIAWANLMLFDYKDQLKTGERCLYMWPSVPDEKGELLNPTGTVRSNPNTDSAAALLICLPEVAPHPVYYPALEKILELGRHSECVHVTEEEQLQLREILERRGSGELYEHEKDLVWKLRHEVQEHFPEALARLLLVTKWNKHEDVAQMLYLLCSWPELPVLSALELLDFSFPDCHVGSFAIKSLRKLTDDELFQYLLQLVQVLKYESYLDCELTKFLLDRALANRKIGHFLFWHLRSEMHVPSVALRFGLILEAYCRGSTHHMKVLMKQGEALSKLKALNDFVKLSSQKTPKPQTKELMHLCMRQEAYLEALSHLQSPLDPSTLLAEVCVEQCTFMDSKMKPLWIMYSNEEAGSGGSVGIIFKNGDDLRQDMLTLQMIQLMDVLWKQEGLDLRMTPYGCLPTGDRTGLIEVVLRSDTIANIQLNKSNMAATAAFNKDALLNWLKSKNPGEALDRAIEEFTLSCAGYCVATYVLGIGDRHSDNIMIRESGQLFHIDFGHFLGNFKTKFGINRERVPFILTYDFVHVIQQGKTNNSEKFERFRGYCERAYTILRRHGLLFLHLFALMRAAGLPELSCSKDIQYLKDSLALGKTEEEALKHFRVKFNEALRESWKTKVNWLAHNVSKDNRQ
T1 sequence (P27986 whole entry partner): as the sequence (P27986 whole entry partner) above

Take `C[C@H](Nc1ncnc2[nH]cnc12)c1cc2cccc(Cl)c2c(CCN2CCOCC2)n1` [Compound 4]: the IC50 in experiment [1] is < 100 nM; in experiment [2], < 100 nM; in experiment [3], < 10 µM; in experiment [4], < 10 µM; in experiment [5], < 10 µM.
With `C[C@H](Nc1ncnc2[nH]cnc12)c1cc2cccc(Cl)c2c(CN2CCOCC2)n1` [Compound 7], the half-inhibitory concentration (IC50) in experiment [1] was < 100 nM; in experiment [2], < 100 nM; in experiment [3] it was > 10 µM; in experiment [4], < 10 µM; in experiment [5], > 10 µM.
Consider `C[C@H](Nc1ncnc2[nH]cnc12)c1cc2cccc(Cl)c2c(CN2CCC(F)(F)C2)n1` [Compound 8], for which the IC50 in experiment [1] was < 1000 nM; in experiment [2] it was < 1000 nM; in experiment [3], < 10 µM; in experiment [4] it was < 1 µM; in experiment [5] it was < 10 µM.
On to `C[C@H](Nc1ncnc2[nH]cnc12)c1cc2cccc(Cl)c2c(C(=O)N2CCOCC2)n1` [Compound 13], for which the IC50 in experiment [1] is < 100 nM; in experiment [2], < 100 nM; in experiment [3] it was < 10 µM; in experiment [4] it was < 0.1 µM; in experiment [5], > 10 µM.
Regarding `C[C@H](Nc1ncnc2[nH]cnc12)c1cc2cccc(Cl)c2c(C(=O)N2CCCC2)n1` [Compound 14], the IC50 in experiment [1] was < 100 nM; in experiment [2], < 100 nM; in experiment [3] it was > 10 µM; in experiment [4], < 10 µM; in experiment [5] it was > 10 µM.
On to `C[C@H](Nc1ncnc2[nH]cnc12)c1cc2cccc(Cl)c2c(C(=O)N2CCN(C)CC2)n1` [Compound 15], for which the IC50 in experiment [1] was < 100 nM; in experiment [2] it was < 100 nM; in experiment [3], > 10 µM; in experiment [4] it was < 10 µM; in experiment [5] it was < 10 µM.
With `C[C@H](Nc1ncnc2[nH]cnc12)c1cc2cccc(Cl)c2c(C(=O)N2C3CCC2COC3)n1` [Compound 16], the IC50 in experiment [1] is < 100 nM; in experiment [2] it was < 100 nM; in experiment [3], < 10 µM; in experiment [4], < 10 µM; in experiment [5] it was > 10 µM.
For the compound `C[C@@H]1CN(C(=O)c2nc([C@H](C)Nc3ncnc4[nH]cnc34)cc3cccc(Cl)c23)CCN1` [Compound 17], the IC50 in experiment [1] was < 100 nM; in experiment [2] it was < 1000 nM; in experiment [3], < 10 µM; in experiment [4], > 10 µM; in experiment [5], > 10 µM.
In the case of `C[C@H](Nc1ncnc2[nH]cnc12)c1cc2cccc(Cl)c2c(C(=O)N2CCN[C@@H](C)C2)n1` [Compound 18], the IC50 in experiment [1] is < 100 nM; in experiment [2], < 1000 nM; in experiment [3] it was < 1 µM; in experiment [4] it was < 10 µM; in experiment [5], < 10 µM.
Consider `C[C@H](Nc1ncnc2[nH]cnc12)c1cc2cccc(Cl)c2c(C(=O)N2CC3CCC(C2)O3)n1` [Compound 19], for which the IC50 was < 100 nM in experiment [1]; < 100 nM in experiment [2]; < 10 µM in experiment [3]; < 1 µM in experiment [4]; > 10 µM in experiment [5].
Consider `C[C@H](Nc1ncnc2[nH]cnc12)c1cc2cccc(Cl)c2c(C(=O)N2CCC(F)(F)C2)n1` [Compound 20], for which the IC50 in experiment [1] is < 100 nM; in experiment [2], < 100 nM; in experiment [3], > 10 µM; in experiment [4], < 1 µM; in experiment [5], > 10 µM.
With `C[C@H](Nc1ncnc2[nH]cnc12)c1cc2cccc(Cl)c2c(C(=O)N2CC(F)(F)C2)n1` [Compound 21], the IC50 in experiment [1] is < 100 nM; in experiment [2], < 100 nM; in experiment [3] it was > 10 µM; in experiment [4], < 1 µM; in experiment [5], > 10 µM.
On to `C[C@H](Nc1ncnc2cccnc12)c1cc2cccc(Cl)c2c(C(=O)N(C)C)n1` [Compound 224], for which the IC50 was < 10000 nM in experiment [1], < 10 µM in experiment [3], < 1 µM in experiment [4] and > 10 µM in experiment [5].
`C[C@H](Nc1ncnc2cccnc12)c1cc2cccc(Cl)c2c(C(=O)N2CCNC(=O)C2)n1` [Compound 225]: the IC50 was < 1000 nM in experiment [1], > 10 µM in experiment [3], < 1 µM in experiment [4] and < 10 µM in experiment [5].
With `C[C@H](Nc1ncnc2cccnc12)c1cc2cccc(Cl)c2c(C(=O)N2CCC(F)(F)CC2)n1` [Compound 226], the IC50 is < 1000 nM in experiment [1], > 10 µM in experiment [3], < 10 µM in experiment [4] and > 10 µM in experiment [5].
In the case of `C[C@H](Nc1ncnc2scnc12)c1cc2cccc(Cl)c2c(C(=O)N2CCCOCC2)n1` [Compound 227], the IC50 was < 100 nM in experiment [1], < 10 µM in experiment [3], < 10 µM in experiment [4] and < 10 µM in experiment [5].
For `C[C@H](Nc1ncnc2scnc12)c1cc2cccc(Cl)c2c(C(=O)N2CCCCC2)n1` [Compound 229], the IC50 is < 100 nM in experiment [1], < 1 µM in experiment [3], < 10 µM in experiment [4] and < 10 µM in experiment [5].
On to `C[C@H](Nc1ncnc2cccnc12)c1cc2cccc(Cl)c2c(C(=O)N2CCCCC2)n1` [Compound 230], for which the IC50 in experiment [1] is < 1000 nM; in experiment [3] it was > 10 µM; in experiment [4], < 1 µM; in experiment [5], < 10 µM.
In the same order, the values of `C[C@H](Nc1ncnc2cccnc12)c1cc2cccc(Cl)c2c(C(=O)N2CCCOCC2)n1` [Compound 231] are < 1000 nM, > 10 µM, < 10 µM and < 10 µM.
Taken in the same sequence, the figures for `C[C@H](Nc1ncnc2cccnc12)c1cc2cccc(Cl)c2c(C(=O)N2CCC(O)CC2)n1` [Compound 233] were < 1000 nM, > 10 µM, < 10 µM and < 10 µM.
As for `C[C@@H](Nc1ncnc2[nH]cnc12)c1cc2cccc(Cl)c2c(CN2CCCC2)n1` [Compound 239], the IC50 was > 10000 nM in experiment [1], > 10 µM in experiment [3], > 10 µM in experiment [4] and > 10 µM in experiment [5].
As to `C[C@H](Nc1ncnc2cccnc12)c1cc2cccc(-c3cnn(C)c3)c2c(N2CCN(C)CC2)n1` [Compound 243], the concentration for half-maximal inhibition (IC50) in experiment [1] was < 1000 nM; in experiment [3] it was < 10 µM; in experiment [4] it was < 10 µM; in experiment [5], > 10 µM.
Consider `COCCN(C)C(=O)c1nc([C@H](C)Nc2ncnc3cccnc23)cc2cccc(Cl)c12` [Compound 244], for which the IC50 in experiment [1] is < 1000 nM; in experiment [3] it was > 10 µM; in experiment [4], < 10 µM; in experiment [5], > 10 µM.
Turning to `C[C@H](Nc1ncnc2cccnc12)c1cc2cccc(Cl)c2c(C(=O)N2CCOC[C@H]2C)n1` [Compound 245], the IC50 in experiment [1] is < 1000 nM; in experiment [3], > 10 µM; in experiment [4], < 1 µM; in experiment [5], > 10 µM.
As to `C[C@H](Nc1ncnc2scnc12)c1cc2cccc(Cl)c2c(C(=O)N2CCOC[C@H]2C)n1` [Compound 246], the IC50 in experiment [1] was < 1000 nM; in experiment [3] it was < 10 µM; in experiment [4], < 10 µM; in experiment [5] it was < 10 µM.
For the compound `COCCN(C)C(=O)c1nc([C@H](C)Nc2ncnc3scnc23)cc2cccc(Cl)c12` [Compound 249], the IC50 in experiment [1] is < 100 nM; in experiment [3], < 10 µM; in experiment [4], < 1 µM; in experiment [5], < 10 µM.
